Results on 16 molecules are retold here after patent US9504702B2, “Methods of inhibition of protein fucosylation in vivo using fucose analogs” (Seattle Genetics, Inc., priority 2010, dated 2016).

For data set [1], the system named is antibodies (h1F6 produced by CHO DG44 cell line). Kind of data set: Incorporation of fucose analogs into antibodies in CHO DG44 cell culture. It counts as cell-based. Here is the method: (§1) Fucose analogs have been evaluated for their effect on antibody core fucosylation at concentrations of 50 μM and 1 mM generally as described in Published US Patent Application 2009-0317869. Briefly, the protocol was as follows: A CHO DG44 cell line producing a humanized IgG1 anti-CD70 monoclonal antibody, h1F6 (see International Patent Publication WO 06/113909) was cultured at 7.5×10^5 cells per mL in 2 mLs of CHO culture media at 37°, 5% CO2 and shaking at 100 RPM in a 6 well tissue culture plate. Media was supplemented with insulin like growth factor (IGF), penicillin, streptomycin and either 1 mM or 50 μM of the fucose analog. On day 5 post inoculation, the culture was centrifuged at 13000 RPM for 5 minutes to pellet the cells; antibodies were then purified from supernatant.
(§2) Antibody purification was performed by applying the conditioned media to protein A resin pre-equilibrated with 1× phosphate buffered saline (PBS), pH 7.4. After washing resin with 20 resin bed volumes of 1×PBS, antibodies were eluted with 5 resin bed volumes of Immunopure IgG elution buffer (Pierce Biotechnology, Rockford, Ill.). A 10% volume of 1M Tris pH 8.0 was added to neutralize the eluted fraction.
Certain other fucose analogs were tested for their ability to be incorporated into antibodies. These fucose analogs were tested at concentrations of 50 μM and 1 mM using the methodology as described above.

Data set [2] relates to LP-1, a human multiple myeloma cell line (IgG fucosylation). Put plainly: Fucosylation of LP-1-generated IgG, AOL dot blot. The conditions noted are these: for % of control fucosylated IgG value / dot blot results (% fucose signal of control) / inhibition of IgG fucosylation in human cells (decrease in AOL signal, dot blot): 100 μM; for % of control fucosylated IgG value / activity at 100 µM: 5 days, AOL dot blot, multiple samples separated by semicolon; for % of control fucosylated IgG value / inhibition of IgG fucosylation in human cells (decrease in AOL signal, dot blot) / activity at 100 µM: LP-1 cells; for dot blot results (% fucose signal of control): LP-1-generated IgG; for activity at 100 µM: Homo sapiens, LP-1, 120 h, read-out: % of control fucosylated IgG value. The class given is cell-based. As for the experimental part: To further evaluate the activities of different fucose analogs, 48 different fucose analogs and other four glycosylation inhibitors were tested for their ability to affect the fucosylation the LP-1-generated IgG. LP-1 cells (250,000 cells/mL, 3 mL per compound in 6-well plates) were incubated with 100 μM of each fucose analog for 5 days at 37° C. with a humidified atmosphere of 5% CO2 in IgG-depleted tissue culture media (90% RPMI with 10% IgG-depleted heat inactivated FBS). The IgG was isolated as described above using only 0.5 mL of MabSelect™ protein A resin slurry and one spin cup per sample with elution in 400 μL of IgG elution buffer into 25 μL of 9 M Tris buffer, pH 9. The eluates were concentrated to 10-20 μL per sample and 2 μL of each of the concentrated eluates were dotted onto a nitrocellulose membrane and stained with Ponceau S to estimate and adjust the sample loading for AOL staining. From this estimation of total protein in each sample, approximately 0.5 μg of each sample was dotted onto the membrane, air-dried, and stained with Ponceau S. An image of this stained membrane was captured using an Alpha Innotech FlourChem® Q system. The membrane was then blocked with 5% Bovine Serum Albumin (BSA) in Tris Buffered Saline (TBS) for 1 hr, washed with TBST (TBS with […]) 3 times and then incubated with 5 μg/ml biotinylated-AOL for 1 hr. The membrane was washed again with TBST 3 times, followed by Streptavidin-HRP incubation for 30 min and final washes with TBST 3 times.

The test system of data set [3] is antibody core fucosylation (CHO DG44 cell line producing humanized IgG1 anti-CD70 antibody h1F6). Put plainly: Inhibition of antibody core fucosylation in CHO DG44 cell culture producing h1F6. The conditions noted are these: day 5, CHO DG44 h1F6; for Inhibition at 50 μM: 50 μM fucose analog; for Inhibition at 1 mM / inhibition at 1000 µM: 1 mM fucose analog. It counts as cell-based. Here is the method: as §1, §2

The test system of data set [4] is LP-1 cells (1,6-fucosylation on the antibody). Kind of data set: Fucosylation status of LP-1-generated IgG by reducing PLRP-MS. The class given is cell-based, human. The conditions noted are these: 5 days; for PLRP/MS (inhibition or incorporation): in words. From the text: To further define the results of the AOL dot blot, samples of the IgGs produced by cells treated with the following fucose analogs (that gave moderate to strong decreases in the dot blot AOL signal) were isolated and examined by reducing PLRP-MS to verify the fucosylation status using the MW of the heavy chain: alkynyl fucose peracetate; 5-vinylfucose tetraaceate; 5-methylketofucose tetraacetate; 6-bromofucose tetraacetate; 6-fluorofucose tetraacetate; 5-ethylfucose tetraacetate; 5-epoxyfucose tetraacetate; 6′6-difluorofucose tetraacetate; 6-keto-6-ethyl fucose tetraacetate; and 2-fluorofucose peracetate.
40 mL samples of LP-1 cells (250,000 cells/mL) were treated with 100 μM of a fucose analog for 5 days as described above, and the IgGs were purified as described using protein A resin. The yields were estimated by UV spectroscopy assuming an extinction coefficient of 1.4 AU/(mg/mL). Seven of the ten compounds yielded enough IgG to perform the analysis (use of SGD-2067, SGD-1964, and SGD-2020 yielded <10 μg of IgG, likely due to toxicity of the analogs to the cells). The remaining IgGs were reduced with 10 mM DTT at 37° C. for 15 min and were separated on PLRP followed by MS analysis using a QTOF mass spectrometer. The resulting heavy chain peaks were examined and compared to the IgG generated by untreated cells.
The mass spectrometry signals were evaluated by comparing the peak height of the heavy chain versus heavy chain minus fucose and heavy chain minus fucose plus the mass of the fucose analog (which would arise if there was incorporation of the analog into the antibody carbohydrate).

The mark [5] stands for this setting: concentration not given in the cell (tested at 50 μM and 1 mM).
Where [6] appears, read: 120 h, read-out: Inhibition at 50 μM.

Where two headings read alike, the source gives them in different places. Bounds are passed on as bounds.

The Inhibition is the percentage by which the read-out fell short of the control.

On to 6-allene fucose tetraacetate [SGD-2097], for which the “% Incorporation” value in data set [1] (setting [5]) is ~30%. Further, the “% of control fucosylated IgG value” in data set [2] is given as 45 % of control. In addition, in data set [3], the “Inhibition at 50 μM” value was determined as 23% and the “Inhibition at 1 mM” value is recorded as 34%.
Consider `CC[C@@H]1OC(O)[C@@H](O)[C@H](O)[C@@H]1O` (stereo partly drawn) [5-ethyl fucose, (3S,4R,5S,6S)-6-ethyl-tetrahydro-2H-pyran-2,3,4,5-tetraol], for which the “% Incorporation” value in data set [1] (50 uM) and in data set [1] (1 mM) was >80% each time.
On to `CC(=O)OC1O[C@@H]([C@]2(C)CO2)[C@@H](OC(C)=O)[C@@H](OC(C)=O)[C@@H]1OC(C)=O` (stereo partly drawn) [5-methyloxiran-arabinose tetraacetate, (3S.4R.5S.6R)-6-((S)-2-methyloxiran-2-yl)-tetrahydro-2H-pyran-2,3,4,5-tetrayl tetraacetate], for which the “% Incorporation” value in data set [1] (setting [5]) is listed as ~60%. In data set [3], the “Inhibition at 50 μM” value was ~0% and the “Inhibition at 1 mM” value is ~35-40%.
As to `C=C(C)[C@@H]1OC(OC(C)=O)[C@@H](OC(C)=O)[C@H](OC(C)=O)[C@@H]1OC(C)=O` (stereo partly drawn) [Isopropenyl peracetyl fucose, (3S,4R,5R,6S)-6-(prop-1-en-2-yl)-tetrahydro-2H-pyran-2,3,4,5-tetrayl tetraacetate], the “% Incorporation” value in data set [1] (50 uM) was >80% (1 mM and 50 uM); in data set [1] (1 mM), >80% (1 mM and 50 uM).
As for `C=CC1OC(OC(C)=O)C(OC(C)=O)C(OC(C)=O)C1OC(C)=O` (centres unmarked) [SGD-1922, 5-ethylenylarabinose tetraacetate], in data set [4] (100 μM), the “PLRP/MS (inhibition or incorporation)” value is recorded as “Full incorporator”. Moreover, in data set [2], the “% of control fucosylated IgG value” was 2 % of control and the “dot blot results (% fucose signal of control)” value was 2 % fucose signal of control. In data set [3], the “Inhibition at 50 μM” value was ~0% and the “Inhibition at 1 mM” value is on record as ~4%.
In the case of `CC(=O)OC1OC(CBr)[C@@H](OC(C)=O)[C@@H](OC(C)=O)[C@@H]1OC(C)=O` (stereo partly drawn) [SGD-1969, (3S,4R,5S)-6-(bromomethyl)tetrahydro-2H-pyran-2,3,4,5-tetrayl tetraacetate], the “PLRP/MS (inhibition or incorporation)” value in data set [4] (100 μM) is “Partial incorporator”. In data set [4] (Homo sapiens, 120 h, heavy chain peak heights, read-out: PLRP/MS fucose inhibition), the inhibition at 100 µM was 20%. For the same molecule, in data set [1] (50 uM), the “% Incorporation” value was ~50%. In addition, the “% Incorporation” value in data set [1] (1 mM) was 20% at. Further, in data set [2], the “inhibition of IgG fucosylation in human cells (decrease in AOL signal, dot blot)” value (“inhibition … (decrease in AOL signal, dot blot)” for short) is recorded as “potentially strong inhibitors”; the activity at 100 µM was 1%; the “dot blot results (% fucose signal of control)” value is listed as 1 % fucose signal of control. The Inhibition at 50 μM in data set [3] (setting [6]) was 50%. The same molecule registered an inhibition at 1000 µM in data set [3] (120 h) of 80%.
As to `C#CC[C@@H]1OC(OC(C)=O)[C@@H](OC(C)=O)[C@H](OC(C)=O)[C@@H]1OC(C)=O` (stereo partly drawn) [SGD-1987, (3S,4R,5R,6S)-6-(prop-2-ynyl)-tetrahydro-2H-pyran-2,3,4,5-tetrayl tetraacetate], in data set [1] (1 mM), the “% Incorporation” value is reported as 80% (1 mM). In addition, the activity at 100 µM in data set [2] is 38%. Moreover, the Inhibition at 50 μM in data set [3] (setting [6]) is ~10%. The same molecule gave an inhibition at 1000 µM in data set [3] (120 h) of 10 to 20%.
As to `CC(=O)OC1OC(CF)[C@@H](OC(C)=O)[C@@H](OC(C)=O)[C@@H]1OC(C)=O` (stereo partly drawn) [SGD-1988, (3S,4R,5S)-6-(fluoromethyl)tetrahydro-2H-pyran-2,3,4,5-tetrayl tetraacetate], the “PLRP/MS (inhibition or incorporation)” value in data set [4] (100 μM) is on record as “Full incorporator”. Further, in data set [1] (50 uM), the “% Incorporation” value was >90%. For the same molecule, in data set [1] (1 mM), the “% Incorporation” value is given as >90%. Moreover, in data set [2], the “inhibition … (decrease in AOL signal, dot blot)” value was “potentially strong inhibitors”; the activity at 100 µM stood at 15%; the “dot blot results (% fucose signal of control)” value is 15 % fucose signal of control.
`CC[C@@H]1OC(OC(C)=O)[C@@H](OC(C)=O)[C@H](OC(C)=O)[C@H]1OC(C)=O` (stereo partly drawn) [SGD-1989, (3S,4R,5S,6S)-6-ethyl-tetrahydro-2H-pyran-2,3,4,5-tetrayl tetraacetate]: in data set [4] (100 μM), the “PLRP/MS (inhibition or incorporation)” value is “Fully incorporated”. Further, the “% Incorporation” value in data set [1] (50 uM) is >90%. For the same molecule, the “% Incorporation” value in data set [1] (1 mM) was >90%. Besides, in data set [2], the “inhibition … (decrease in AOL signal, dot blot)” value is “potentially strong inhibitors”; the activity at 100 µM was determined as 11%; the “dot blot results (% fucose signal of control)” value is recorded as 11 % fucose signal of control.
For the molecule `CC(=O)OC1OC(C(F)F)C(OC(C)=O)C(OC(C)=O)C1OC(C)=O` (centres unmarked) [SGD-2046, 6′6-difluoro fucose tetraacetate], the PLRP/MS fucose inhibition in data set [4] (100 μM, heavy chain peak heights) was ~33%. In data set [4] (100 μM), the “PLRP/MS (inhibition or incorporation)” value is given as “Partial incorporator”. Also, in data set [2], the “% of control fucosylated IgG value” is on record as 2 % of control; the “inhibition … (decrease in AOL signal, dot blot)” value was “potentially strong inhibitors”; the “dot blot results (% fucose signal of control)” value is 2 % fucose signal of control. In addition, in data set [3], the “Inhibition at 50 μM” value is >80% and the “Inhibition at 1 mM” value is >80%.
Consider `CC(=O)OC1CC(OC(C)=O)C(OC(C)=O)C(C)O1` (centres unmarked) [SGD-2108, 6-methyl-tetrahydro-2H-pyran-2,4,5-triyl triacetate], for which the activity at 100 µM in data set [2] is 104%. Moreover, the Inhibition at 50 μM in data set [3] (CHO-DG44, 120 h, read-out: Inhibition at 50 μM) was determined as 0%.
For the molecule “alkynyl fucose tetra PEG ester [SGD-2057]”, in data set [2], the “% of control fucosylated IgG value” is listed as 64 % of control. In data set [3], the “Inhibition at 50 μM” value is given as >80% and the “Inhibition at 1 mM” value is >80%.
Regarding “alkynyl fucose tetraisobutanoate [SGD-2043]”, in data set [2], the “% of control fucosylated IgG value” is 34 % of control. In data set [3], the “Inhibition at 50 μM” value is on record as >80% and the “Inhibition at 1 mM” value was >80%.
In the case of “alkynyl fucose tetraisonicotinate [SGD-2058]”, the “% of control fucosylated IgG value” in data set [2] was 34 % of control. Besides, in data set [3], the “Inhibition at 50 μM” value is reported as >80% and the “Inhibition at 1 mM” value is >80%.
Take “alkynyl fucose tetranicotinate [SGD-2047]”: the “% of control fucosylated IgG value” in data set [2] was 50 % of control. Moreover, in data set [3], the “Inhibition at 50 μM” value is given as >80% and the “Inhibition at 1 mM” value is on record as >80%.
Consider “benzyloxy fucose tetraacetate [SGD-2048]”, for which the “% of control fucosylated IgG value” in data set [2] is listed as 114 % of control. Moreover, in data set [3], the “Inhibition at 50 μM” value is 0% and the “Inhibition at 1 mM” value stood at 75%.
